Measurements: ChEMBL document CHEMBL1145025, “Structure-activity relationship of (1-aryl-2-piperazinylethyl)piperazines: antagonists for the AGRP/melanocortin receptor binding” (J Med Chem, 2003)
Active and inactive are the calls of the source.

How the values were obtained:
[1] = target: T1, Melanocortin receptor 4 (Homo sapiens, UniProt P32245); test: In vitro ability to inhibit the binding of [125I]AGRP to the human Melanocortin 4 receptor
[2] = target: T1, Melanocortin receptor 4; test: In vitro ability to inhibit the binding of alpha [125I]NDP-MSH to the human Melanocortin 4 receptor
[3] = target: T1, Melanocortin receptor 4; test: Fold selectivity for AGRP vs NDP-MSH binding was reported
[4] = Fold selectivity for AGRP vs NDP-MSH binding was reported; Minimal Activity.
[5] = Fold selectivity for AGRP vs NDP-MSH binding to human MC4R was reported; Minimal activity

T1 sequence (P32245 whole entry): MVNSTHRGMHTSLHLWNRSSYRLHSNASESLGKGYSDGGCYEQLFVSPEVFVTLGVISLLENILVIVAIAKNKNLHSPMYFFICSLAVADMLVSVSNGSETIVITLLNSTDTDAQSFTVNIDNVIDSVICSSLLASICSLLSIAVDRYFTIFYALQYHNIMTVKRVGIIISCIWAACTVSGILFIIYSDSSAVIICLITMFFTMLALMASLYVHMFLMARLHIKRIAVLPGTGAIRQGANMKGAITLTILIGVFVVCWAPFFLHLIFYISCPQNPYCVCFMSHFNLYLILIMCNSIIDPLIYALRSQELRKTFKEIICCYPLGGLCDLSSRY

SMILES	IC50 [1]	IC50 [2]	Selectivity [3]	Selectivity [4]	Selectivity [5]
CC(CN1CCN(CC(c2cccc(Cl)c2)N2CCN(C)CC2)CC1)C(=O)c1ccccc1 (configuration not stated)	336 nM	598 nM	1.8		
CC(CN1CCN(CC(c2ccccc2)N2CCN(C)CC2)CC1)C(=O)c1ccccc1 (configuration not stated)	> 5000 nM	> 10000 nM			Partially active
CC(CN1CCN(CC(c2ccc(F)cc2)N2CCN(C)CC2)CC1)C(=O)c1ccc(C(F)(F)F)cc1 (configuration not stated)	820 nM	469 nM	0.5		
CCN1CCN(C(CN2CCN(CC(C)C(=O)c3ccccc3)CC2)c2ccc(F)cc2)CC1 (configuration not stated)	321 nM	193 nM	1.6		
CC(CN1CCN(CC(c2ccc(F)cc2)N2CCN(C3CCCCC3)CC2)CC1)C(=O)c1ccccc1 (configuration not stated)	152 nM	164 nM	1		
COc1ccc(C(=O)C(C)CN2CCN(CC(c3ccc(F)cc3)N3CCN(C)CC3)CC2)cc1 (configuration not stated)	2150 nM	597 nM	0.3		
CC(CN1CCN(CC(c2ccc(F)cc2)N2CCN(C)CC2)CC1)C(=O)c1ccc(Cl)c(Cl)c1 (configuration not stated)	364 nM	188 nM	0.5		
CC(CN1CCN(CC(c2ccc(F)cc2)N2CCN(C)CC2)CC1)C(=O)c1ccc([N+](=O)[O-])cc1 (configuration not stated)	588 nM	1500 nM	2.5		
CN1CCN(C(CN2CCN(CCCc3ccccc3)CC2)c2ccc(F)cc2)CC1 (configuration not stated)	> 10000 nM	3830 nM		Partially active	
CC(CN1CCN(CC(c2ccc(F)cc2)N2CCN(c3ccccc3)CC2)CC1)C(=O)c1ccccc1 (configuration not stated)	2860 nM	249 nM	0.1		

Continued, in another order:

IC50 [1]	IC50 [2]	Selectivity [3]	Selectivity [4]	SMILES	Selectivity [5]
> 10000 nM	3230 nM		Partially active	CN1CCN(C(CN2CCN(CC3CCc4ccccc4C3=O)CC2)c2ccc(Cl)cc2)CC1 (configuration not stated)	
266 nM	178 nM	0.7		CC(CN1CCN(CC(c2ccc(F)cc2)N2CCN(C)CC2)CC1)C(=O)c1ccc(Cl)cc1 (configuration not stated)	
> 10000 nM	> 10000 nM		Partially active	CN1CCN(C(CN2CCN(CCC(=O)c3ccccc3)CC2)c2ccc(F)cc2)CC1 (configuration not stated)	
118 nM	150 nM	0.8		CC(CN1CCN(CC(c2ccc(Cl)cc2)N2CCN(C)CC2)CC1)C(=O)c1ccc(Cl)cc1 (configuration not stated)	
